Reference: patent publication US8906953B2, “Pyrrolidine substitute flavones for the treatment of inflammatory disorders” (Piramal Enterprises Limited, priority 2010, dated 2014)
Like-named read-outs stand apart in the source and are kept apart here.

Experiments:
TNF-α = assay: LPS-induced TNF-α release from hPBMCs (ELISA); assay type: cell-based; conditions: Homo sapiens
Method: Cytokine production by lipopolysaccharides (LPS) in hPBMCs (human peripheral blood mononuclear cells) was measured as in reference, Physiol. Res. 2003, 52, 593-598, the disclosure of which is incorporated by reference for the teaching of the assay. Blood was collected from healthy donors into Potassium EDTA vacutainer tubes (BID vacutainer). The PBMC were isolated using gradient centrifugation in Histopaque-1077 solution (Sigma). Isolated PBMC were suspended in RPMI 1640 (Rosewell Park Memorial Institute) culture medium (Sigma-Aldrich Fine Chemicals, USA) containing 10% fetal bovine serum (FBS) (JRH, USA), 100 U/mL penicillin (Sigma Chemical Co. St Louis, Mo., USA) and 100 μg/mL streptomycin (Sigma Chemical Co. St Louis, Mo.). The cell concentration was adjusted to 1×10^6 cells/mL. The viability as determined by trypan blue dye exclusion was uniform Ly≧98%. The cell suspension (100 μL) was added to the wells of a 96-well culture plate. Following cell plating, 79 μL of the culture medium and 1 μL of various concentrations of test compounds (compounds of formula 1) (final concentration 0.001, 0.003, 0.005, 0.01, 0.025, 0.03, 0.05, 0.1, 0.25, 0.3 and 1 μM) dissolved in DMSO (dimethyl sulfoxide, Sigma, Mo., USA) were added to the cells. The final concentration of DMSO was adjusted to 0.5%. The vehicle (0.5% DMSO) was used as control. […] The plates were incubated for 30 minutes at 37° C. in an atmosphere of 5% CO2. Finally, 20 μL (10 μg/mL) per well of LPS, (Escherchia coli 0127:B8, Sigma Chemical Co., St. Louis, Mo.) was added to the wells of the incubated plates, for a final concentration of 1 μg/mL. The plates were incubated at 37° C. for 5 hours in an atmosphere of 5% CO2. […] Supernatants were harvested and assayed for TNF-α, IL-1β, IL-6 and IL-8 by ELISA as described by the manufacturer. (OptiEIA ELISA sets, BD Biosciences, Pharmingen). The 50% inhibitory concentration (IC50) values were calculated by a nonlinear regression method using GraphPad software (Prism 3.03).

p38 MAP kinase = biological target: T1, p38 MAP kinase (Homo sapiens, UniProt Q16539); assay: p38 MAP kinase inhibition, western blot in anisomycin-stimulated Jurkat cells; assay type: cell-based; conditions: 0.1 μM, anisomycin 10 μg/mL 30 minutes
T1 construct: endogenous in cells; host or cells: Jurkat T-cells (ATCC)
Method: The method for identifying inhibitors of p38 mitogen-activated protein (MAP) Kinase was designed as in reference, Journal of Lipid Research, 1999, 40, 1911-1919, the disclosure of which is incorporated herein by reference for the teaching of the assay.
Human Jurkat T-cells from American Type Culture Collection (ATCC) were cultivated in Rosewell Park Memorial Institute (RPMI) medium supplemented with 10% fetal bovine serum (FBS), penicillin (100 U/mL) and streptomycin (100 μg/mL) at 37° C. in humidified atmosphere of 95% air-5% CO2. Culture medium was changed every 2-3 days and always 24 hours before harvest. RPMI medium, FBS, CellLytic, anti-β-actin, sodium orthovanadate and anisomycin were purchased from Sigma-Aldrich (USA). TNF-α was purchased from R & D Systems (USA). Complete Protease inhibitor cocktail was procured from Roche.
Jurkat cells were preincubated with vehicle or the compound of example 3 (0.1 μM) for 1 hour in a 37° C., CO2 incubator. For MAPK experiments, the cells were stimulated with anisomycin (10 μg/mL) for 30 minutes. SB 203580 was used as a standard (1 μM). […] Aliquots of the resulting extracts were analyzed for their protein content using the Coomassie Plus Protein Assay Reagent (Pierce) following manufacturer's instructions. […]

T1 sequence (Q16539 whole entry): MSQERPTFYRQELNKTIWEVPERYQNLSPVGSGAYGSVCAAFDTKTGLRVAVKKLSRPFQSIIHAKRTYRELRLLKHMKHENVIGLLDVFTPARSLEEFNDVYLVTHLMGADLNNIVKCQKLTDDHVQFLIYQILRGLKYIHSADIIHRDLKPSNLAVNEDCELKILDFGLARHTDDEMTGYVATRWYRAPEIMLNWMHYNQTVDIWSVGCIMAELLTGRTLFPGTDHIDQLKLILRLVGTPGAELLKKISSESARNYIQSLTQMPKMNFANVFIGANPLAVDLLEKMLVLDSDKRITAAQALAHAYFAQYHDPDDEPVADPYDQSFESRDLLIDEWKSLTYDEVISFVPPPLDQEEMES

## CN1CC[C@@H](c2c(O)cc(O)c3c(=O)cc(-c4ccc(C(F)(F)F)cc4Cl)oc23)[C@@H]1CO.Cl [Compound of example 3, (+)-trans-2-(2-Chloro-4-trifluoromethyl-phenyl)-5,7-dihydroxy-8-(2-hydroxymethyl-1-methyl-pyrrolidin-3-yl)-chromen-4-one hydrochloride]
TNF-α; LPS-induced release from hPBMCs (Table 1A), read-out: IC50 TNF-α
  IC50: 1 µM
TNF-α; LPS-stimulated hPBMCs, 5 hours, read-out: Activity (TNF-α) IC50
  IC50: 1 µM
p38 MAP kinase
  p38 MAP kinase inhibition (western blot): not an inhibitor of p38 MAP kinase
